Measured values: ChEMBL document CHEMBL5380831, “Azolylpyrimidinediols as Novel Structural Scaffolds of DNA-Groove Binders against Intractable Acinetobacter baumannii” (J Med Chem, 2023)
≈ marks a conversion by molar mass, not a printed value.

How the values were obtained:
Type in all cases: functional
[1] = test system: Escherichia coli; test: Antibacterial activity against Escherichia coli ATCC 25922 assessed as bacterial growth inhibition incubated for 24 hrs by broth microdilution method
[2] = test system: Staphylococcus aureus; test: Antibacterial activity against Staphylococcus aureus ATCC 29213 assessed as bacterial growth inhibition incubated for 24 hrs by broth microdilution method
[3] = test system: Enterococcus faecalis; test: Antibacterial activity against Enterococcus faecalis assessed as bacterial growth inhibition incubated for 24 hrs by broth microdilution method
[4] = test system: Acinetobacter baumannii; test: Antibacterial activity against Acinetobacter baumannii assessed as bacterial growth inhibition incubated for 24 hrs by broth microdilution method
[5] = test system: Pseudomonas aeruginosa; test: Antibacterial activity against Pseudomonas aeruginosa assessed as bacterial growth inhibition incubated for 24 hrs by broth microdilution method
[6] = test system: Staphylococcus aureus; test: Antibacterial activity against methicillin-resistant Staphylococcus aureus assessed as bacterial growth inhibition incubated for 24 hrs by broth microdilution method
[7] = test system: Pseudomonas aeruginosa; test: Antibacterial activity against Pseudomonas aeruginosa ATCC 27853 assessed as bacterial growth inhibition incubated for 24 hrs by broth microdilution method
[8] = test system: Staphylococcus aureus; test: Antibacterial activity against Staphylococcus aureus assessed as bacterial growth inhibition incubated for 24 hrs by broth microdilution method
[9] = test system: Escherichia coli; test: Antibacterial activity against Escherichia coli assessed as bacterial growth inhibition incubated for 24 hrs by broth microdilution method
[10] = test system: Staphylococcus aureus; test: Antibacterial activity against Staphylococcus aureus ATCC 25923 assessed as bacterial growth inhibition incubated for 24 hrs by broth microdilution method
[11] = test system: Klebsiella pneumoniae; test: Antibacterial activity against Klebsiella pneumoniae assessed as bacterial growth inhibition incubated for 24 hrs by broth microdilution method
[12] = test system: Acinetobacter baumannii; test: Induction of drug resistance against Acinetobacter baumannii assessed as fold increase in MIC after 20 passages measured for 20 days by sequential passaging method; details: time 20.0 day

With `CCn1cc(C(=O)O)c(=O)c2cc(F)c(N3CCNCC3)cc21` [NORFLOXACIN] the MIC [1] was 3 µM (≈ 0.958 µg/mL), the MIC [2] was 6 µM (≈ 1.92 µg/mL) and the MIC [3] was 100 µM (≈ 31.9 µg/mL). It also gave an MIC [4] of 6 µM (≈ 1.92 µg/mL), an MIC [5] of 1 µM (≈ 0.319 µg/mL) and an MIC [6] of 50 µM (≈ 16 µg/mL). It also gave an MIC [7] of 3 µM (≈ 0.958 µg/mL), an MIC [8] of 3 µM (≈ 0.958 µg/mL) and an MIC [9] of 25 µM (≈ 7.98 µg/mL). It also gave an MIC [10] of 2 µM (≈ 0.639 µg/mL), an MIC [11] of 6 µM (≈ 1.92 µg/mL) and a fold change (FC) [12] of 31.

Work on `Cc1cn(-c2nccc(N(CCO)CCO)n2)cn1` yielded an MIC [1] of 1950 µM (≈ 512 µg/mL), an MIC [2] of 973 µM (≈ 256 µg/mL) and an MIC [3] of 1950 µM (≈ 512 µg/mL). The MIC [4] was 486 µM (≈ 128 µg/mL), the MIC [5] was 973 µM (≈ 256 µg/mL) and the MIC [6] was 973 µM (≈ 256 µg/mL). For the same compound, the MIC [7] was 973 µM (≈ 256 µg/mL), the MIC [8] was 973 µM (≈ 256 µg/mL) and the MIC [9] was 973 µM (≈ 256 µg/mL). For the same compound, the MIC [10] was 1950 µM (≈ 512 µg/mL) and the MIC [11] was 973 µM (≈ 256 µg/mL).

With `Cc1nccn1-c1nccc(N(CCO)CCO)n1` the MIC [1] was 1950 µM (≈ 512 µg/mL), the MIC [2] was 973 µM (≈ 256 µg/mL) and the MIC [3] was 973 µM (≈ 256 µg/mL). For the same compound, the MIC [4] was 973 µM (≈ 256 µg/mL), the MIC [5] was 973 µM (≈ 256 µg/mL) and the MIC [6] was 973 µM (≈ 256 µg/mL). It also gave an MIC [7] of 973 µM (≈ 256 µg/mL), an MIC [8] of 973 µM (≈ 256 µg/mL) and an MIC [9] of 973 µM (≈ 256 µg/mL). It also gave an MIC [10] of 973 µM (≈ 256 µg/mL) and an MIC [11] of 973 µM (≈ 256 µg/mL).

For `OCCN(CCO)c1nccc(-n2ccnc2)n1`, the MIC [1] was 1030 µM (≈ 256 µg/mL), the MIC [2] was 1030 µM (≈ 256 µg/mL) and the MIC [3] was 1030 µM (≈ 256 µg/mL). For the same compound, the MIC [4] was 1030 µM (≈ 256 µg/mL), the MIC [5] was 1030 µM (≈ 256 µg/mL) and the MIC [6] was 1030 µM (≈ 256 µg/mL). It also gave an MIC [7] of 1030 µM (≈ 256 µg/mL), an MIC [8] of 1030 µM (≈ 256 µg/mL) and an MIC [9] of 1030 µM (≈ 256 µg/mL). For the same compound, the MIC [10] was 1030 µM (≈ 256 µg/mL) and the MIC [11] was 1030 µM (≈ 256 µg/mL).

`CCN(CCO)c1nccc(-n2cncn2)n1` showed an MIC [1] of 547 µM (≈ 128 µg/mL), an MIC [2] of 1090 µM (≈ 256 µg/mL) and an MIC [3] of 1090 µM (≈ 256 µg/mL). For the same compound, the MIC [4] was 1090 µM (≈ 256 µg/mL), the MIC [5] was 547 µM (≈ 128 µg/mL) and the MIC [6] was 1090 µM (≈ 256 µg/mL). It also gave an MIC [7] of 1090 µM (≈ 256 µg/mL), an MIC [8] of 1090 µM (≈ 256 µg/mL) and an MIC [9] of 1090 µM (≈ 256 µg/mL). It also gave an MIC [10] of 1090 µM (≈ 256 µg/mL) and an MIC [11] of 1090 µM (≈ 256 µg/mL).

Compound `Cc1cn(-c2ccnc(N(CCO)CCO)n2)cn1` has an MIC [1] of 1950 µM (≈ 512 µg/mL), an MIC [2] of 973 µM (≈ 256 µg/mL) and an MIC [3] of 973 µM (≈ 256 µg/mL). The MIC [4] was 973 µM (≈ 256 µg/mL), the MIC [5] was 973 µM (≈ 256 µg/mL) and the MIC [6] was 973 µM (≈ 256 µg/mL). It also gave an MIC [7] of 973 µM (≈ 256 µg/mL), an MIC [8] of 973 µM (≈ 256 µg/mL) and an MIC [9] of 973 µM (≈ 256 µg/mL). For the same compound, the MIC [10] was 973 µM (≈ 256 µg/mL) and the MIC [11] was 973 µM (≈ 256 µg/mL).

With `Cc1cc2ncn(-c3ccnc(N(CCO)CCO)n3)c2cc1C` the MIC [1] was 782 µM (≈ 256 µg/mL), the MIC [2] was 782 µM (≈ 256 µg/mL) and the MIC [3] was 196 µM (≈ 64.2 µg/mL). For the same compound, the MIC [4] was 391 µM (≈ 128 µg/mL), the MIC [5] was 98 µM (≈ 32.1 µg/mL) and the MIC [6] was 391 µM (≈ 128 µg/mL). It also gave an MIC [7] of 98 µM (≈ 32.1 µg/mL), an MIC [8] of 98 µM (≈ 32.1 µg/mL) and an MIC [9] of 196 µM (≈ 64.2 µg/mL). For the same compound, the MIC [10] was 391 µM (≈ 128 µg/mL) and the MIC [11] was 391 µM (≈ 128 µg/mL).

Work on `Brc1ccc2c3ccccc3n(-c3nccc(-n4cncn4)n3)c2c1` yielded an MIC [1] of 656 µM (≈ 257 µg/mL), an MIC [2] of 656 µM (≈ 257 µg/mL) and an MIC [3] of 164 µM (≈ 64.2 µg/mL). It also gave an MIC [4] of 656 µM (≈ 257 µg/mL), an MIC [5] of 1 µM (≈ 0.391 µg/mL) and an MIC [6] of 656 µM (≈ 257 µg/mL). It also gave an MIC [7] of 656 µM (≈ 257 µg/mL), an MIC [8] of 5 µM (≈ 1.96 µg/mL) and an MIC [9] of 656 µM (≈ 257 µg/mL). For the same compound, the MIC [10] was 1660 µM (≈ 648 µg/mL) and the MIC [11] was 656 µM (≈ 257 µg/mL).

`CCc1nccn1-c1nccc(N(CCO)CCO)n1` was tested, and the MIC [1] was 924 µM (≈ 256 µg/mL), the MIC [2] was 924 µM (≈ 256 µg/mL) and the MIC [3] was 924 µM (≈ 256 µg/mL). The MIC [4] was 924 µM (≈ 256 µg/mL), the MIC [5] was 924 µM (≈ 256 µg/mL) and the MIC [6] was 924 µM (≈ 256 µg/mL). For the same compound, the MIC [7] was 924 µM (≈ 256 µg/mL), the MIC [8] was 924 µM (≈ 256 µg/mL) and the MIC [9] was 924 µM (≈ 256 µg/mL). It also gave an MIC [10] of 924 µM (≈ 256 µg/mL) and an MIC [11] of 1850 µM (≈ 512 µg/mL).

`CO/N=C(/C(=O)N1CCN(c2nccc(-n3cncn3)n2)CC1)c1csc(N)n1` showed an MIC [1] of 147 µM (≈ 60.9 µg/mL), an MIC [2] of 587 µM (≈ 243 µg/mL) and an MIC [3] of 294 µM (≈ 122 µg/mL). The MIC [4] was 294 µM (≈ 122 µg/mL), the MIC [5] was 587 µM (≈ 243 µg/mL) and the MIC [6] was 294 µM (≈ 122 µg/mL). It also gave an MIC [7] of 294 µM (≈ 122 µg/mL), an MIC [8] of 294 µM (≈ 122 µg/mL) and an MIC [9] of 294 µM (≈ 122 µg/mL). It also gave an MIC [10] of 587 µM (≈ 243 µg/mL) and an MIC [11] of 147 µM (≈ 60.9 µg/mL).

With `CC(C)c1nccn1-c1nccc(N(CCO)CCO)n1` the MIC [1] was 1760 µM (≈ 512 µg/mL), the MIC [2] was 879 µM (≈ 256 µg/mL) and the MIC [3] was 1790 µM (≈ 521 µg/mL). The MIC [4] was 440 µM (≈ 128 µg/mL), the MIC [5] was 440 µM (≈ 128 µg/mL) and the MIC [6] was 1760 µM (≈ 512 µg/mL). It also gave an MIC [7] of 879 µM (≈ 256 µg/mL), an MIC [8] of 879 µM (≈ 256 µg/mL) and an MIC [9] of 879 µM (≈ 256 µg/mL). The MIC [10] was 440 µM (≈ 128 µg/mL) and the MIC [11] was 879 µM (≈ 256 µg/mL).

`CCCc1nccn1-c1nccc(N(CCO)CCO)n1` gave an MIC [1] of 879 µM (≈ 256 µg/mL), an MIC [2] of 879 µM (≈ 256 µg/mL) and an MIC [3] of 879 µM (≈ 256 µg/mL). For the same compound, the MIC [4] was 879 µM (≈ 256 µg/mL), the MIC [5] was 879 µM (≈ 256 µg/mL) and the MIC [6] was 879 µM (≈ 256 µg/mL). For the same compound, the MIC [7] was 879 µM (≈ 256 µg/mL), the MIC [8] was 879 µM (≈ 256 µg/mL) and the MIC [9] was 879 µM (≈ 256 µg/mL). For the same compound, the MIC [10] was 879 µM (≈ 256 µg/mL) and the MIC [11] was 879 µM (≈ 256 µg/mL).

Work on `CCc1nccn1-c1ccnc(N(CCO)CCO)n1` yielded an MIC [1] of 924 µM (≈ 256 µg/mL), an MIC [2] of 924 µM (≈ 256 µg/mL) and an MIC [3] of 924 µM (≈ 256 µg/mL). It also gave an MIC [4] of 924 µM (≈ 256 µg/mL), an MIC [5] of 924 µM (≈ 256 µg/mL) and an MIC [6] of 924 µM (≈ 256 µg/mL). The MIC [7] was 924 µM (≈ 256 µg/mL), the MIC [8] was 924 µM (≈ 256 µg/mL) and the MIC [9] was 924 µM (≈ 256 µg/mL). The MIC [10] was 924 µM (≈ 256 µg/mL) and the MIC [11] was 1850 µM (≈ 512 µg/mL).
